From PMC4072317 (Food chemistry, 2013)
Like-named read-outs stand apart in the source and are kept apart here.

How the values were obtained:
[1] = system: human intestinal Caco-2 cell membranes; settings: ref Yi et al., 2006; cited from earlier work
[2] = for ACNs in I.E. as % of input: fed state (high fat meal), ileal efflux over 4 h, mean ± range, two experiments
[3] = for hourly bioaccessibility as a percentage of anthocyanin input: fasted state, 4 h
[4] = system: mice with diet-induced diabetes; settings: orally administered, ref Grace et al., 2009; cited from earlier work

Structure (SMILES)	transport efficiency in Caco-2 cells [1]	ACNs in I.E. as % of input [2]	other results
OC[C@H]1O[C@@H](Oc2cc3c(O)cc(O)cc3[o+]c2-c2cc(O)c(O)c(O)c2)[C@H](O)[C@@H](O)[C@@H]1O [dp-3-Glucoside, delphinidin-3-glucoside]	lower transport efficiency		
COc1cc(-c2[o+]c3cc(O)cc(O)c3cc2O[C@@H]2O[C@H](COC(C)=O)[C@H](O)[C@H](O)[C@H]2O)cc(OC)c1O [mal-3-(6″-Acetoyl)-galactoside]		2.4 ± 0.9 % of input	
COc1cc(-c2[o+]c3cc(O)cc(O)c3cc2O[C@@H]2OC[C@H](O)[C@H](O)[C@H]2O)cc(O)c1O.[Cl-] [pt-3-Arabinoside, petunidin-3-arabinoside]		4.5 ± 1.5 % of input	total bioaccessibility in the fed state relative to the fasted state ([2]; fed (high fat meal) vs fasted, Tables 1 and 2): twice as bioaccessible
COc1cc(-c2[o+]c3cc(O)cc(O)c3cc2O[C@@H]2OC[C@H](O)[C@H](O)[C@H]2O)cc(OC)c1O [mal-3-Arabinoside, malvidin-3-arabinoside]		2.6 ± 0.4 % of input	total bioaccessibility in the fasted state relative to the fed state ([3]; fasted vs fed (high fat meal), Tables 1 and 2): twice as bioaccessible
COc1cc(-c2[o+]c3cc(O)cc(O)c3cc2O[C@@H]2O[C@H](CO)[C@@H](O)[C@H](O)[C@H]2O)cc(OC)c1O [mal-3-Glucoside, malvidin-3-glucoside]	highest transport efficiency	3.2 ± 0.1 % of input	hourly bioaccessibility as a percentage of anthocyanin input ([3]; ileal samples): 0.3%; hourly bioaccessibility as a percentage of anthocyanin input ([3]; jejunum): 0.8%; hypoglycemic effect [4]: hypoglycemic
COc1cc(-c2[o+]c3cc(O)cc(O)c3cc2O[C@@H]2O[C@H](CO)[C@H](O)[C@H](O)[C@H]2O)cc(OC)c1O [mal-3-Galactoside]		2.6 ± 0.8 % of input	
